Experiments:
Type in all cases: cell-based
Cb1 = Cb1 tyrosine phosphorylation (immunoprecipitation/Western blot), NIH3T3 cells; details: 10 μM, 20 minutes
Description: To determine the role of C3G and its complex in Rap1 activation, NIH3T3 cells were grown and treated for 20 minutes in the presence or absence of H89 (10 μM) or PP2 [AG1879; 4-amino-5-(4-chlorophenyl)-7-(t-butyl)pyazolo[3,4-d]pyrimidine, LY294002 [2-(4-Morpholinyl)-8-phenyl-4H-1-bemzopyran-4-one] (10 μM, Cal Biochem), treated with Forskolin (10 μM, Cal Biochem) for five minutes, and cell lysates prepared, as described above. Endogenous Cb1 was immunoprecipitated using a Cb1 antibody (Santa Cruz Biotechnology Inc.) from cell lysates and analyzed by Western blot for tyrosine phosphorylation, using a pTyr antibody (Santa Cruz Biotechnology Inc.) as described above. Briefly, for immunoprecipitation of Cb1, equal amounts of cell lysate per condition were precipitated at 4° C. for 4 to 6 hours in lysis buffer. Proteins were resolved by SDS-PAGE, blotted onto PVDF membranes and probed with the appropriate antibodies. All Western blots and immunoprecipitations were performed at least three times.

[1] = test system: complex including C3G, Crk-L, and Cb1; experiment: Cb1/Crk-L/C3G complex formation (myc-Cb1 immunoprecipitation), NIH3T3 cells
Text: To determine if Cb1 forms part of a complex, cells were stimulated with Forskolin in the presence or absence of H89 or PP2 and lysates generated as described above. Myc-Cb1 was immunoprecipitated from treated cells and the pellets analyzed by Western blot using antibodies specific for Crk-L and C3G. Total cell lysates were examined for myc-Cb1 by Western blot using a myc antibody (Santa Cruz Biotechnology Inc.). NIH3T3 cells express Crk-L, an isoform of Crk that is constitutively bound to C3G.

ERK1/2 [2] = experiment: ERK phosphorylation Western blot, Hek293 cells; details: 10 μM, 20 minutes pretreatment
Description: To examine the downstream consequences of Src-dependent signaling in Hek293 cells, ERK activation was measured using pERK antibodies (pERK1/2). Hek293 cells received no pretreatment or were pretreated for 20 minutes with H89 (10 μM), PP2 (10 μM), or LY (10 μM), and stimulated for 5 minutes with isoproterenol (10 μM), Forskolin (10 μM), or 100 ng/ml EGF, using the methods described above. Cell lysates were analyzed by Western blotting for the presence of pERK1/2 (New England Biolabs) or total ERK2 (Santa Cruz Biotechnology) as a control for protein loading.
To determine the role of PKA phosphorylation of Src serine 17 in ERK activation by cAMP, Hek293 cells were transfected with myc-ERK2 in the presence or absence of SrcS17A or SrcS17D, and stimulated with 10 μM isoproterenol. MycERK2 was immunoprecipitated from cell lysates using an agarose-coupled Myc antibody followed by western blotting for phospho-ERK (pMycERK2, upper panel) or total MycERK2 with a Myc antibody, as a control for protein loading.

ERK1/2 [3] = experiment: ERK1/2 phosphorylation Western blot, NIH3T3 cells; details: inhibition of SFKs
Description: To determine the role of SFKs in cAW's antagonism of extracellular signal regulated kinase (ERK) activation, the following methods were used. NIH3T3 cells were incubated in the presence or absence of either H89 or PP2 for 20 minutes, pretreated with Forskolin for five minutes, and then stimulated with 100 ng/ml, epidermal growth factor (EGF, Sigma), or 100 ng/ml platelet-derived growth factor (PDGF, Sigma) for five minutes, as described in EXAMPLE 1. Cell lysates were analyzed by Western blot for phosphorylation of endogenous ERK1/2 or total ERK2. To detect phosphorylation of endogenous ERK1/2, phosphorylation-specific ERK antibodies (PERK) that recognize phosphorylated ERK1 (pERK1) and ERK2 (pERK2), at residues threonine 183 and tyrosine 185 were used (New England Biolabs, Beverly, Mass.).

AKT = AKT phosphothreonine 308 Western blot, Hek293 cells
Description: To determine the physiological role of Ras signaling in Hek293 cells, a well-known Ras effector, phosphoinositol-3 kinase (PI3-K) and its target, AKT (a serine/threonine kinase which participates in a variety of cellular effects including cell survival, adhesion, and cell growth) were examined as follows. Hek293 cells received no pretreatment or were pretreated for 20 minutes with H89 (10 μM), PP2 (10 μM), or LY (10 μM), and stimulated for 5 minutes with isoproterenol. Cell lysates were analyzed by Western blotting for phospho-AKT (PAKT 308, Cell Signaling, Beverly, Mass.) or total AKT (Cell Signaling) as a control. Isoproterenol activated AKT, as measured by phosphorylation-specific antibodies to phosphothreonine 308 (AKT). This phosphorylation required P13-K as LY blocked isoproterenol-induced phosphorylation at this site. Moreover, this phosphorylation was blocked by PP2, but not H89, indicating the requirement of SFKs, but not PKA. Therefore, isoproterenol's activation of AKT proceeds through Src and PI3-K but not PKA.
Similar amounts of cell lysate (determined by protein concentrations) were immunoprecipitated using an agarose-coupled HA antibody followed by Western blotting for phospho-AKT (PHA-AKT 308) or total HA-AKT with an HA antibody (12CA5, Boehringer Mannheim, Indianapolis, Ind.).

SMILES	Effect on Forskolin-stimulated Cb1 tyrosine phosphorylation (Cb1)	Effect on Forskolin-stimulated C3G/Crk-L/Cb1 complex formation [1]	Effect of inhibitor on isoproterenol's phosphorylation of ERK (ERK1/2 [2])	Effect on EGF's or PDGF's activation of ERKs (ERK1/2 [3])	Effect on Forskolin's inhibition of ERKs (ERK1/2 [3])	Effect of inhibitor on isoproterenol-induced AKT phosphorylation (AKT; 10 μM, 20 minutes pretreatment)	Activation of AKT (phosphothreonine 308) (AKT; 5 minutes)
O=S(=O)(NCCNC/C=C/c1ccc(Br)cc1)c1cccc2cnccc12 [H89, N-[2(Bromocimamylamino)ethyl]-5-isoquinolinesulfonamide]	inhibited	blocked	inhibited				
CC(C)(C)n1nc(-c2ccc(Cl)cc2)c2c(N)ncnc21 [PP2, 4-amino-5-(4-chlorophenyl)-7-(t-butyl)pyazolo[3,4-d]pyrimidine]	inhibited	blocked	inhibited	no observable effect	prevented Forskolin's inhibition of ERKs	blocked	
CC(C)NCC(O)c1ccc(O)c(O)c1 (stereo not shown) [isoproterenol]							activated AKT

— patent US20050037446A1, “Agents that recognize src when phosphorylated at serine 17” (priority 2001, published 2005)
